In article PMC8950700 (Pharmaceuticals, 2022):
Like-named read-outs stand apart in the source and are kept apart here.

Legend:
[1] = in vitro; details: dog
[2] = system: H5N1V116A virus; assay type: cell-based, influenza A virus
[3] = system: H5N1V116A virus; assay type: cell-based, influenza A virus; details: read-out: IC50 (50% Inhibitory Concentration) H5N1V116A
[4] = system: H1N1 virus; assay type: cell-based
[5] = system: H5N1N295S virus; assay type: cell-based, influenza A virus; details: read-out: IC50 (50% Inhibitory Concentration) H5N1N295S
[6] = system: H5N1N295S virus; assay type: cell-based, influenza A virus
[7] = system: H5N1wild virus; details: mouse, in vivo
[8] = system: H5N1N295S virus; assay type: cell-based, influenza A virus; remark: listed apart in the source
[9] = system: H5N1wild virus; assay type: cell-based
[10] = system: H5N1V116A virus; assay type: cell-based, influenza A virus; remark: listed apart in the source
[11] = system: H5N1wild virus; assay: microbe, parasite or virus in culture; assay type: cell-based
[12] = system: A/California/04/2009 (H1N1); assay: microbe, parasite or virus in culture; assay type: cell-based
[13] = system: H1N1 virus; details: mouse, in vivo
[14] = system: H1N1 virus; assay type: cell-based, influenza A virus; details: 5 µM
[15] = system: A/chicken/Egypt/B13825A/2017 (H5N1wild); assay: microbe, parasite or virus in culture; assay type: cell-based

Compound	CC50 at 72 h [1] [µM]	viral inhibition in the count of plaques, H5N1V116A [2] [%]	IC50 [3] [µM]	inhibition in the viral HA titer, H1N1 [4]	IC50 [5] [µM]	viral inhibition in the count of plaques, H5N1N295S [6] [%]	viral titer in lung tissue (TCID50), H5N1wild [7]	inhibition in the viral HA titer, H5N1N295S [8]	inhibition in the viral HA titer, H5N1wild [9]	inhibition in the viral HA titer, H5N1V116A [10]	mortality after infection with H1N1 [13] [%]	viral titer in lung tissue (TCID50), H1N1 [13]	also measured
CC(=O)N[C@H]1[C@H]([C@H](O)[C@H](O)CO)OC(C(=O)O)=C[C@@H]1N=C(N)N [zanamivir, reference compound]	589	60	127	not more than 80%	15	31	reduced the titration	not more than 25%	not more than 25%	not more than 80%	40	reduced the titration	viral inhibition in the count of plaques, H5N1wild [11]: 69.2%; IC50 ([12]; read-out: IC50 (50% Inhibitory Concentration) H1N1): 1650 nM; virus shedding in the nasal wash (EID50), H1N1 [13]: significantly reduced the viral titer; viral inhibition in the count of plaques, H1N1 [14]: 96.5%; IC50 ([15]; read-out: IC50 (50% Inhibitory Concentration) H5N1wild): 10.4 µM
CCOC(=O)C1=C[C@H](N)C(NC(C)=O)[C@H](OC(CC)CC)C1 (stereo partly shown) [oseltamivir, reference compound]	581	~40	309	not more than 80%	25.8	~8.5	reduced the propagation	≤ 20%	≤ 20%	not more than 80%	60	did not affect	survival after infection with H5N1wild [7]: 60%; inhibition at 5 µM ([11]; Influenza A virus, read-out: viral inhibition in the count of plaques, H5N1wild): ~90%; IC50 ([12]; Influenza A virus, H1N1, read-out: IC50 (50% Inhibitory Concentration) H1N1): 1650 nM; IC50 ([15]; Influenza A virus, read-out: IC50 (50% Inhibitory Concentration) H5N1wild): 10.1 µM; IC50 ([15]; Influenza A virus, read-out: IC50 H5N1wild (Figure 5)): 10.1 µM
